According to the NIST ThermoML archive (doi:10.1021/je060271a):
“And” between values parts separate entries of the source, which are not always exact repeats. Equal values may be shown once. ± gives the expanded uncertainty stated by the source.

Details: Liquid, Vibrating tube method

CCCCCCC(=O)OCC(COC(=O)CCCCCC)(COC(=O)CCCCCC)COC(=O)CCCCCC [pentaerythritol tetraheptanoate]
Details | mass density
323.14 K, 25915 kPa | 972.2 ± 1.2 kg/m3
323.14 K, 25942 kPa | 972.3 ± 1.2 kg/m3
323.14 K, 25974 kPa | 972.2 ± 1.2 kg/m3
323.14 K, 26002 kPa | 972.3 ± 1.2 kg/m3
323.14 K, 26088 kPa | 972.3 ± 1.2 kg/m3
323.14 K, 26774 kPa | 972.7 ± 1.2 kg/m3
323.14 K, 26808 kPa | 972.6 ± 1.2 kg/m3
323.14 K, 26837 kPa | 972.6 ± 1.2 kg/m3
323.14 K, 26866 kPa | 972.9 ± 1.2 kg/m3
323.14 K, 27024 kPa | 972.9 ± 1.2 kg/m3
323.14 K, 27055 kPa | 972.9 ± 1.2 kg/m3
323.14 K, 27085 kPa | 972.9 ± 1.2 kg/m3
323.14 K, 27114 kPa | 973 ± 1.2 kg/m3
323.14 K, 27150 kPa | 973 ± 1.2 kg/m3
323.14 K, 27179 kPa | 972.9 ± 1.2 kg/m3
323.14 K, 27214 kPa | 973 ± 1.2 kg/m3
323.14 K, 27244 kPa | 973 ± 1.2 kg/m3
323.14 K, 27274 kPa | 973.1 ± 1.2 kg/m3
323.14 K, 27565 kPa | 973.2 ± 1.2 kg/m3
323.14 K, 27596 kPa | 973.2 ± 1.2 kg/m3
323.14 K, 27731 kPa | 973.3 ± 1.2 kg/m3
323.14 K, 27762 kPa | 973.3 ± 1.2 kg/m3
323.14 K, 27825 kPa | 973.3 ± 1.2 kg/m3
323.14 K, 27863 kPa | 973.4 ± 1.2 kg/m3
323.14 K, 27895 kPa | 973.4 ± 1.2 kg/m3
323.14 K, 28027 kPa | 973.5 ± 1.2 kg/m3
323.14 K, 28373 kPa | 973.8 ± 1.2 kg/m3
323.14 K, 28406 kPa | 973.7 ± 1.2 kg/m3
323.14 K, 28439 kPa | 973.7 ± 1.2 kg/m3
323.14 K, 28757 kPa | 973.8 ± 1.2 kg/m3
323.14 K, 28791 kPa | 973.9 ± 1.2 kg/m3
323.14 K, 28831 kPa | 973.9 ± 1.2 kg/m3
323.14 K, 28904 kPa | 973.9 ± 1.2 kg/m3
323.14 K, 28938 kPa | 974 ± 1.2 kg/m3
323.14 K, 28973 kPa | 974.1 ± 1.2 kg/m3
323.14 K, 29048 kPa | 974.1 ± 1.2 kg/m3
323.14 K, 29083 kPa | 974.1 ± 1.2 kg/m3
323.14 K, 29124 kPa | 974.1 ± 1.2 kg/m3
323.14 K, 29158 kPa | 974.1 ± 1.2 kg/m3
323.14 K, 29193 kPa | 974.1 ± 1.2 kg/m3
323.14 K, 29227 kPa | 974.2 ± 1.2 kg/m3
323.14 K, 29270 kPa | 974.2 ± 1.2 kg/m3
323.14 K, 29304 kPa | 974.3 ± 1.2 kg/m3
323.14 K, 29346 kPa | 974.3 ± 1.2 kg/m3
323.14 K, 29381 kPa | 974.2 ± 1.2 kg/m3
323.14 K, 29416 kPa | 974.2 ± 1.2 kg/m3
323.14 K, 29451 kPa | 974.2 ± 1.2 kg/m3
323.14 K, 29494 kPa | 974.4 ± 1.2 kg/m3
323.14 K, 29529 kPa | 974.4 ± 1.2 kg/m3
323.14 K, 30197 kPa | 974.6 ± 1.2 kg/m3
323.14 K, 30480 kPa | 974.8 ± 1.2 kg/m3
323.14 K, 30518 kPa | 975 ± 1.2 kg/m3
323.14 K, 30556 kPa | 974.9 ± 1.2 kg/m3
323.14 K, 30596 kPa | 974.9 ± 1.2 kg/m3
323.14 K, 30642 kPa | 975 ± 1.2 kg/m3
323.14 K, 30681 kPa | 975.1 ± 1.2 kg/m3
323.14 K, 30728 kPa | 975.2 ± 1.2 kg/m3
323.14 K, 30768 kPa | 975 ± 1.2 kg/m3
323.14 K, 30807 kPa | 975.1 ± 1.2 kg/m3
323.14 K, 30846 kPa | 975 ± 1.2 kg/m3
323.14 K, 30893 kPa | 975.2 ± 1.2 kg/m3
323.14 K, 30933 kPa | 975.1 ± 1.2 kg/m3
323.14 K, 30973 kPa | 975.1 ± 1.2 kg/m3
323.14 K, 31020 kPa | 975.2 ± 1.2 kg/m3
323.14 K, 31060 kPa | 975.2 ± 1.2 kg/m3
323.14 K, 31108 kPa | 975.2 ± 1.2 kg/m3
323.14 K, 31148 kPa | 975.2 ± 1.2 kg/m3
323.14 K, 31188 kPa | 975.3 ± 1.2 kg/m3
323.14 K, 31237 kPa | 975.2 ± 1.2 kg/m3
323.14 K, 31277 kPa | 975.4 ± 1.2 kg/m3
323.14 K, 31319 kPa | 975.3 ± 1.2 kg/m3
323.14 K, 31359 kPa | 975.4 ± 1.2 kg/m3
323.14 K, 31408 kPa | 975.4 ± 1.2 kg/m3
323.14 K, 31448 kPa | 975.4 ± 1.2 kg/m3
323.14 K, 31497 kPa | 975.6 ± 1.2 kg/m3
323.14 K, 31539 kPa | 975.5 ± 1.2 kg/m3
323.14 K, 31580 kPa | 975.4 ± 1.2 kg/m3
323.14 K, 31621 kPa | 975.5 ± 1.2 kg/m3
323.14 K, 31671 kPa | 975.6 ± 1.2 kg/m3
323.14 K, 31712 kPa | 975.5 ± 1.2 kg/m3
323.14 K, 31762 kPa | 975.8 ± 1.2 kg/m3
323.14 K, 31804 kPa | 975.8 ± 1.2 kg/m3
323.14 K, 31847 kPa | 975.7 ± 1.2 kg/m3
323.14 K, 31898 kPa | 975.6 ± 1.2 kg/m3
323.14 K, 31940 kPa | 975.7 ± 1.2 kg/m3
323.14 K, 31982 kPa | 975.8 ± 1.2 kg/m3
323.14 K, 32450 kPa | 976.1 ± 1.2 kg/m3
323.14 K, 32496 kPa | 976 ± 1.2 kg/m3
323.14 K, 32540 kPa | 976 ± 1.2 kg/m3
323.14 K, 32584 kPa | 976.2 ± 1.2 kg/m3
323.14 K, 32637 kPa | 976.1 ± 1.2 kg/m3
323.14 K, 32681 kPa | 976.1 ± 1.2 kg/m3
323.14 K, 33266 kPa | 976.4 ± 1.2 kg/m3
323.14 K, 33360 kPa | 976.5 ± 1.2 kg/m3
323.14 K, 33416 kPa | 976.4 ± 1.2 kg/m3
323.14 K, 34625 kPa | 977.3 ± 1.2 kg/m3
323.15 K, 99.4 kPa | 955.6 ± 1.2 kg/m3
323.15 K, 99.5 kPa | 955.5 ± 1.2 kg/m3 and 955.6 ± 1.2 kg/m3 and 955.7 ± 1.2 kg/m3
323.15 K, 99.7 kPa | 955.7 ± 1.2 kg/m3 and 955.6 ± 1.2 kg/m3
323.15 K, 99.8 kPa | 955.7 ± 1.2 kg/m3
323.15 K, 99.9 kPa | 955.7 ± 1.2 kg/m3 and 955.8 ± 1.2 kg/m3 and 955.6 ± 1.2 kg/m3
323.15 K, 100 kPa | 955.7 ± 1.2 kg/m3 and 955.8 ± 1.2 kg/m3 and 955.6 ± 1.2 kg/m3
323.15 K, 100.2 kPa | 955.7 ± 1.2 kg/m3 [middle of 4 runs]
323.15 K, 100.4 kPa | 955.7 ± 1.2 kg/m3 and 955.8 ± 1.2 kg/m3 and 955.6 ± 1.2 kg/m3
323.15 K, 100.5 kPa | 955.6 ± 1.2 kg/m3 and 955.7 ± 1.2 kg/m3
323.15 K, 100.6 kPa | 955.6 ± 1.2 kg/m3 and 955.7 ± 1.2 kg/m3 and 955.8 ± 1.2 kg/m3
323.15 K, 100.7 kPa | 955.8 ± 1.2 kg/m3 and 955.7 ± 1.2 kg/m3 and 955.5 ± 1.2 kg/m3
323.15 K, 100.9 kPa | 955.7 ± 1.2 kg/m3
323.15 K, 101.1 kPa | 955.6 ± 1.2 kg/m3 and 955.7 ± 1.2 kg/m3
323.15 K, 101.3 kPa | 955.6 ± 1.2 kg/m3
323.15 K, 101.5 kPa | 955.8 ± 1.2 kg/m3 and 955.7 ± 1.2 kg/m3
323.15 K, 101.6 kPa | 955.7 ± 1.2 kg/m3
